Experiments:
Assay type in all cases: in vivo, mice
[1] = tested on: anti-ovalbumin-specific IgG1 antibody; experiment: Antigen-specific antibody in serum, LPS-induced asthma/COPD model (ELISA)
Protocol: In order to examine whether the extract of the present invention has the ability to produce an antigen-specific antibody in an LPS-induced asthma/chronic obstructive pulmonary disease model, the LPS-induced asthma/chronic obstructive pulmonary disease model was prepared by treatment with each of the extract of Example 2 and a comparative drug in the same manner as described in Test Example 7-1. At 48 hours after the final challenge, the mice were anesthetized by intraperitoneal injection with ketamine and xylazine. Then, blood was collected from the heart using a 1 ml syringe, and serum was separated from the blood by centrifugation. Then, an anti-ovalbumin-specific IgG1 antibody in the serum was measured according to an ELISA assay, and the results of the measurement are shown in Table 11 below.

[2] = tested on: MCP-1 (monocyte chemoattractant protein-1); experiment: Inflammatory mediator in bronchoalveolar lavage, E. coli-EV-induced model (ELISA)
Protocol: (§1) The expression patterns of the inflammatory mediators MCP-1 (monocyte chemoattractant protein-1) and MIP-1α (macrophage inflammatory protein-1α) in the bronchoalveolar lavage obtained in Test Example 8-1 were measured using an ELISA assay, and the results of the measurement are shown in Table 14 below.

[3] = tested on: MIP-1α (macrophage inflammatory protein-1α); experiment: as above
Protocol: as §1

[4] = tested on: invasion of inflammatory cells into lung tissue; experiment: Invasion of inflammatory cells into lung tissue, LPS-induced asthma/COPD model (H&E score); conditions: ovalbumin + LPS model
Protocol: Then, the lung was isolated, embedded with paraffin, sectioned to a thickness of […], and stained with H&E (hematoxylin-eosin). The invasion of inflammatory cells into a portion surrounding the airway was measured (see FIG. 3), and the inflammations of the airway and the pulmonary parenchyma were compared and scored.

[5] = tested on: inflammatory cells in pulmonary bronchoalveolar lavage; experiment: Inflammatory cells in pulmonary bronchoalveolar lavage, LPS-induced asthma/COPD model; conditions: ovalbumin + LPS model
Protocol: Whether the extract of the present invention has the effect of inhibiting pulmonary bronchial inflammation in an LPS (lipopolysaccharide)-induced asthma/chronic obstructive pulmonary disease model was examined (see You-Sun Kim et al., J. Immunol., 2010, 185, 5648-5655; Jun-Pyo Choi et al., Allergy, 2010, 65, 1322-1330).
Specifically, a mixture of 75 μg of ovalbumin and 10 μg of LPS (Sigma) was intranasally administered a total of four times (days 0, 1, 2 and 7) into C57BL/6 male mice (6 weeks old; provided from the Animal Laboratory in Biotech Center, Pohang University of Science & Technology) to sensitize the mice. At 14, 15, 21 and 22 days from the first sensitization date, 50 μg of ovalbumin in PBS was challenged into the nasal cavity to induce asthma and chronic obstructive pulmonary disease. In addition, at 14, 15, 21 and 22 days at which challenge was performed, each of 1.0% CMC, 100, 200 and 400 mg/10 ml/kg of the extract of Example 2, 1 mg/10 ml/Kg of the comparative drug dexamethason and 10 mg/10 ml/kg of the comparative drug montelukast was orally administered twice a day. At 48 hours after the final challenge, the mice were anesthetized by intraperitoneal administration of ketamine and xylazine, and the organ of the mice was exposed and a catheter was inserted therein. Then, the bronchoalveoli were laved with each of 0.8 and 0.7 ml of sterile phosphate buffered saline to obtain a bronchoalveolar lavage. The bronchoalveolar lavage was centrifuged at 4° C. at 1000 rpm for 5 minutes, and the supernatant was removed. 2 ml of 10% FBS-IMDM (fetal bovine serum—Iscove's Modified Dulbecco's Medium) was added to the cells which were then counted. Then, the cells were cytospun, plated on a slide, and Diff-Quick stained. At least 300 inflammatory cells were observed by the staining method and classified into eosinophils, macrophages, neutrophils and lymphocytes, and the cell numbers of the groups treated with dexamethason, montelukast and the extract of Example 2 were compared with the ratios of inflammatory cells in the pulmonary bronchoalveolar lavages of the negative control group and the positive control group, thereby evaluating the inhibitory effects of the test materials against airway inflammation.

[6] = tested on: anti-E. coli-EV-specific IgG2a; experiment: Antigen-specific antibody in serum, E. coli-EV-induced model (ELISA)
Protocol: (§2) In order to examine whether the extract of the present invention has the ability to produce an antigen-specific antibody in an E. coli-EV-induced asthma/chronic obstructive pulmonary disease model, the E. coli-EV-induced asthma/chronic obstructive pulmonary disease model was prepared by treatment with each of the extract of Example 2 and a comparative drug in the same manner as described in Test Example 8-1. At 48 hours after the final challenge, the mice were anesthetized by intraperitoneal injection with ketamine and xylazine. Then, blood was collected from the heart using a 1 ml syringe, and serum was separated from the blood by centrifugation. Then, anti-E. coli-EV-specific IgG1 and IgG2a antibodies in the serum were measured according to an ELISA assay, and the results of the measurement are shown in Table 15 below.

[7] = tested on: anti-E. coli-EV-specific IgG1; experiment: as above
Protocol: as §2

[8] = tested on: IP-10 (interferon-gamma inducible protein-10); experiment: Inflammatory mediator in bronchoalveolar lavage, LPS-induced asthma/COPD model (ELISA); conditions: ovalbumin + LPS model
Protocol: In order to examine whether the extract of the present invention has the effect of inhibiting inflammatory mediators in a bronchoalveolar lavage in an LPS-induced asthma/chronic obstructive pulmonary disease model, the expression pattern of the inflammatory mediator IP-10 (interferon-gamma inducible protein-10) in the bronchoalveolar lavage obtained in Test Example 7-2 was measured using an ELISA assay, and the results of the measurement are shown in Table 10 below.

[9] = tested on: co-stimulatory molecules CD40, CD80, CD86 and MHCII; experiment: Co-stimulatory molecules in lung dendritic cells, E. coli-EV-induced model (FACS); conditions: 1 mg/kg twice a day, FIG. 5
Protocol: In order to examine whether the extract of the present invention has the effect of inhibiting the expression of co-stimulatory molecules in dendritic cells isolated from the lung tissue of an E. coli-EV-induced asthma/chronic obstructive pulmonary disease model, the following test was performed.
Specifically, a portion of the lung tissue obtained in Test Example 8-4 was cut finely with a blade, and then incubated with 5 ml of 1× Trypsin-EDTA and 1000 units of collagenase at 37 °C for 10 minutes. Then, the tissue was passed through a 100 μm mesh to collect only immune cells, and the cells were double-stained with each of the dendritic cell marker CD11c and the co-stimulatory molecules CD40, CD80, CD86 and MHCII (major histocompatibility complex II). Next, the expression levels of the co-stimulatory molecules in the dendritic cells were measured using FACS (fluorescence activated cell sorter), and the results of the measurement are shown in FIG. 5.

C[C@@H]1C[C@H]2[C@@H]3CCC4=CC(=O)C=C[C@]4(C)[C@@]3(F)[C@@H](O)C[C@]2(C)[C@@]1(O)C(=O)CO [Dexamethason, dexamethason]
IGg1 in serum ([1]; 1 mg/kg b.i.d.): 28.94 | IGg1 in serum, Inhibition rate (%) ([1]; 1 mg/kg b.i.d.): 57.35% | Inhibition rate(%) MCP-1 ([2]; 1 mg/kg b.i.d.): 1.2% | Inhibition rate(%) MIP-1α ([3]; 1 mg/kg b.i.d.): 8.3% | Inhibition rate (%) of invasion of inflammatory cells into lung tissue ([4]; 1 mg/kg b.i.d.): 28.87% | Inhibition rate(%) Eosinophils ([5]; 1 mg/kg b.i.d.): 51.1% | Inhibition rate(%) Macrophages ([5]; 1 mg/kg b.i.d.): 27.3% | Inhibition rate(%) Total cells ([5]; 1 mg/kg b.i.d.): 40.4% | Inhibition rate(%) IgG2a ([6]; 1 mg/kg b.i.d.): 55.7% | Inhibition rate(%) IgG1 ([7]; 1 mg/kg b.i.d.): 93.8% | IP-10 inhibition rate (%) ([8]; 1 mg/kg b.i.d.): 4.09% | expression levels of the co-stimulatory molecules in the dendritic cells [9]: a decrease in the expression of CD86 and MHCII

CC(C)(O)c1ccccc1CC[C@@H](SCC1(CC(=O)O)CC1)c1cccc(/C=C/c2ccc3ccc(Cl)cc3n2)c1 [montelukast]
IGg1 in serum ([1]; 10 mg/kg b.i.d.): 44.84 | IGg1 in serum, Inhibition rate (%) ([1]; 10 mg/kg b.i.d.): 33.91% | Inhibition rate(%) MCP-1 ([2]; 10 mg/kg b.i.d.): 11.5% | Inhibition rate(%) MIP-1α ([3]; 10 mg/kg b.i.d.): 4.2% | Inhibition rate (%) of invasion of inflammatory cells into lung tissue ([4]; 10 mg/kg b.i.d.): 8.25% | Inhibition rate(%) Eosinophils ([5]; 10 mg/kg b.i.d.): 13.3% | Inhibition rate(%) Macrophages ([5]; 10 mg/kg b.i.d.): 8.2% | Inhibition rate(%) Total cells ([5]; 10 mg/kg b.i.d.): 10.6% | Inhibition rate(%) IgG2a ([6]; 10 mg/kg b.i.d.): 27.2% | Inhibition rate(%) IgG1 ([7]; 10 mg/kg b.i.d.): 59.7% | IP-10 inhibition rate (%) ([8]; 10 mg/kg b.i.d.): 1.80%
